Measured values reported in patent US12409138B2, “Nanoparticles and nanogel drug compositions for treatment of age-related macular degeneration” (University of South Florida, priority 2019, dated 2025).

Tests used:
ARPE-19 cells [1] = assay: Wound scratch assay (cell migration, with or without VEGF165); assay type: cell-based, human; details: 1 μM, 48 h
Protocol: Wound scratch assay. Wound healing assay was performed as per the earlier reports to analyse the inhibitory effect of SM and its formulation on VEGF165 (rhVEGF; R&D Systems) induced angiogenesis. ARPE-19 cells were seeded and allowed to grow to attain 80% confluency in 24-well plates. Carefully, wounds were made by pipette tip to take out monolayer of cells as a strip. The wounds were created typically with around 300 μm of the average size and […] variation in wound width was considered for the study. To ensure removal of partially adhered cells on the plates due to creation of the wound, they were washed with sterile PBS twice. The cell wells were then treated with at 1 μM and 10 μM concentrations of SM-NP gel formulations in DMEM F12 media without FBS. Cell migration was observed by using ZEISS inverted phase contrast microscope, (Axicom 506 mono) with Axicom MRCS-ZEN2pro software and quantified by calculating the area covered by the cells because of cell migration from the wound edges towards the center area of the wound using ImageJ software. To check the effect of presence of VEGF on the cell migration, two wells were also kept at above two concentrations and treated with VEGF simultaneously. […] The width of the wound was measured using images captured by microscope. […]

ARPE-19 cells [2] = assay: Cytotoxicity study (MTT assay); assay type: cell-based, human; details: 20 μM
Protocol: Cell culture. ARPE-19, a human retinal pigment epithelial cell line ([…]) cells were grown and maintained in DMEM F12 medium supplemented with 10% v/v FBS and 1% 10,000 U/ml penicillin-streptomycin antibiotics. The cell cultures were allowed to incubate at 37° C. temperature, in a humidified atmosphere with 5% CO2. Cytotoxicity study. The MTT assay was carried out to determine cytotoxicity of SM-NPs as well as in SM-NPs gel in comparison with pure drug solution, in ARPE-19, human retinal pigment epithelial cells. The cells were seeded in 200 μl of DMEM F12 supplemented with 10% FBS in a 96 well plate (Corning, N.Y.) at a seeding density of 5000 cells/well and incubated for 24 h at 37° C., 5% CO2 atmosphere to allow attachment and growth of the cells. SM drug solution and formulations with various concentrations of SM were prepared by first dissolving SM in DMSO and then diluting them with DMEM F12 medium without FBS. The cells were treated with formulations after 24 h of seeding and incubated for […]. […] Intensity of color produced after dissolution of formazan crystals was quantified by measuring optical density at 595 nm wavelength by microtiter plate reader (Spectra MAX 190, Molecular Devices, California, USA). […] Cell viability were calculated graphically from concentration vs viability curves, considering the optical density of control well as 100% viable.

[3] = In vitro drug release study by dialysis; assay type: physicochemical
Protocol: In vitro drug release study. The in vitro drug release study for SM from nanoparticles and nanoparticles incorporated thermo-reversible gel were compared with plain drug solution and was studied at 37°±0.5° C. In short, drug solution in DMSO, SM-NPs and SM-NP Gel having equivalent quantity of SM (1 mg/ml) were placed in dialysis tubes (MWCO 10 KDa) and sealed tightly by using dialysis closures. Then, the dialysis tubes were immersed in 20 ml of PBS (pH 7.4) as a release medium comprising of 0.1% Tween 80 (v/v). Release medium was allowed to stir at 150 rpm and the 0.5 mL of samples were withdrawn at 0.25, 0.5, 1, 2, 4, 6, 12, 24, 48, 72, 96, 120, 144 and 168 h. The volumes were made up with fresh release medium after each sampling. The concentration of SM in a sample was determined by UV spectroscopy at 432 nm after dilution with methanol in ratio of 1:10. For all the formulations, in vitro release tests were carried out in triplicate and results were described as cumulative quantity of drug released at each point of time.

[4] = tested on: VEGF-A secretion in ARPE-19 cells; assay: VEGF inhibition using ELISA; assay type: cell-based, human
Protocol: VEGF inhibition using ELISA. Human retinal pigmented epithelium ARPE-19 cells were seeded in 24 well plate at density of 5×10^4 cells/mL and allowed to grow for 24 h in DMEM F12 medium supplemented with 10% FBS and were incubated at 37° C., 5% CO2 atmosphere till wells became confluent. After 24 h, the culture media was replaced by incomplete media which is DMEM F12 without FBS and treatment with formulation was given. […] Quantification of the VEGF secretion in the culture media was done by ELISA method using Human VEGF-A Platinum ELISA Kit following manufacturer's instructions. The protein content in the cells were estimated using Pierce BCA protein assay kit after collecting cell lysate and the by normalizing VEGF secretion to total protein. Samples were read using ELISA plate reader (Spectra MAX 190, Molecular Devices, California, USA) at 450 nm absorbance and 550 nm and difference was recorded, followed by calculating inhibition of VEGF secretion using standard curve.

Release kinetics model [3]: first order drug release
Cumulative drug release at 1 hr ([3]; PBS pH 7.4, 0.1% Tween 80, 37° C.): 80%±2.5%
SMILES: CCN(CC)CCNC(=O)c1c(C)[nH]c(/C=C2\C(=O)Nc3ccc(F)cc32)c1C [SM solution, Sunitinib malate]
Wound recovery (ARPE-19 cells [1]): 80±1.8%
Viability lost (ARPE-19 cells [2]; 24 h): 25%
Viability lost (ARPE-19 cells [2]; 48 h): 30%
VEGF secretion ([4]; 12 hr, compared to the NPs treatment): noticeably reduced
VEGF expression levels ([4]; 48 h, 10 μM SM equivalent, control = 100%): 90%
activity at 10 µM ([4]; Homo sapiens, ARPE-19, 12 h, 10 μM SM equivalent, control = 100%, read-out: Inhibition of VEGF levels): 56 ± 3%
